Data: patent publication US9278958B2, “Anti-cancer compounds” (KATHOLIEKE UNIVERSITEIT LEUVEN, priority 2012, dated 2016)
Like-named read-outs stand apart in the source and are kept apart here.

How the values were obtained:
CEM cells = experiment: Cytostatic assay, CEM; format: cell-based; conditions: for Ratio (tumor cell selectivity): ratio IC50 HeLa / IC50 CEM
Experimental: (§1) To each well of a 96-well microtiter plate were added 5-7.5×10^4 cells and a given amount of the test compound. The cells were allowed to proliferate for 48 h to 96 h (depending on the nature of the cell line) at 37° C. in a humidified CO2-controlled atmosphere. At the end of the incubation period, the cells were counted in a Coulter Counter (Coulter Electronics Ltd, Harpenden Herts, United Kingdom).

[1] = system: HeLa cervix carcinoma cells; experiment: Cytostatic assay, HeLa; format: cell-based, human
Experimental: as §1

[2] = Table 1b, read-out: IC50 (μM) (CEM)
[3] = Table 1b, read-out: IC50 (μM) (HeLa)
[4] = Homo sapiens, CCRF-CEM, CEM cells, Table 7, 5-arylthiomethyl-substituted 2-amino-3-carboxymethylthiophenes, read-out: IC50 (μM) CEM
[5] = Homo sapiens, HeLa cells, Table 7, 5-arylthiomethyl-substituted 2-amino-3-carboxymethylthiophenes, read-out: IC50 (μM) HeLa
[6] = Homo sapiens, CCRF-CEM, Table 1a, read-out: IC50 μM (CEM)
[7] = Homo sapiens, CCRF-CEM, CEM cells, Table 6, 5-alkyl-substituted 2-aminothiophenes, read-out: IC50 (μM) CEM
[8] = Homo sapiens, HeLa cells, Table 6, 5-alkyl-substituted 2-aminothiophenes, read-out: IC50 (μM) HeLa
[9] = Homo sapiens, CCRF-CEM, Table 1b, read-out: IC50 (μM) (CEM)
[10] = Homo sapiens, Table 1b, read-out: IC50 (μM) (HeLa)
[11] = CEM cells, Table 7, 5-arylthiomethyl-substituted 2-amino-3-carboxymethylthiophenes, read-out: IC50 (μM) CEM
[12] = HeLa cells, Table 7, 5-arylthiomethyl-substituted 2-amino-3-carboxymethylthiophenes, read-out: IC50 (μM) HeLa

Compound	IC50 (CEM cells; [4]) [µM]	Ratio (tumor cell selectivity) (CEM cells; Table 7)	IC50 [1, 5] [µM]	also measured
COC(=O)c1cc(COc2ccc(OC)cc2)sc1N [TJ25, Methyl 2-amino-5-(2-(4-methoxyphenyl)oxymethyl)thiophene-3-carboxylate]				IC50 (CEM cells; [2]): 43 ± 13 µM; IC50 [1, 3]: 68 ± 13 µM
COC(=O)c1cc(CSc2ccc(Cl)cc2)sc1N [Compound D4, Methyl 2-amino-5-((4-chlorophenylthio)methyl)thiophene-3-carboxylate]	1.7	25	42	
CNc1sc(CCc2ccc(OC)cc2)cc1C(=O)OC [TJ6A, Methyl 2-methylamino-5-(2-(4-methoxyphenyl)ethyl)thiophene-3-carboxylate]				IC50 (CEM cells; [6]): 23 µM
COC(=O)c1cc(CSc2ccccc2C)sc1N [Compound D3, Methyl 2-amino-5-(o-tolylthiomethyl)thiophene-3-carboxylate]	2	36	71	
COC(=O)c1cc(CSc2ccc(-c3ccccc3)cc2)sc1N [TJ184, Methyl 2-amino-5-((biphenyl-4-ylthio)methyl)thiophene-3-carboxylate]	1.2	46	55	
CCCc1cc(C(=O)OC)c(N)s1 [TJ190, Methyl 2-amino-5-propylthiophene-3-carboxylate]				IC50 (CEM cells; [7]): 6.9 µM; Ratio (tumor cell selectivity) (CEM cells; Table 6): 9; IC50 [1, 8]: 61 µM
COC(=O)c1cc(CSC2CCCCC2)sc1N [Compound D8, Methyl 2-amino-5-(cyclohexylthiomethyl)thiophene-3-carboxylate]	2.1	39	81	
COc1ccc(CCc2cc(C(N)=O)c(N)s2)cc1 [TJ9, 2-Amino-5-(2-(4-methoxyphenyl)ethyl)thiophene-3-carboxamide]				IC50 (CEM cells; [6]): 39 µM
COC(=O)c1cc(CSc2ccccc2)sc1N1C(=O)c2ccccc2C1=O [TJ86, Methyl 2-phthalimido-5-(2-(phenyl)sulfanylmethyl)thiophene-3-carboxylate]				IC50 (CEM cells; [2]): 13 ± 7 µM; IC50 [1, 3]: 184 ± 6 µM
COC(=O)c1cc(CSc2ccc3ccccc3c2)sc1N [TJ113, Methyl 2-amino-5-((naphthalen-2-ylthio)methyl)thiophene-3-carboxylate]	0.9	82	74	IC50 (CEM cells; [9]): 0.9 ± 0.04 µM; IC50 [1, 10]: 74 ± 6 µM
COC(=O)c1cc(CSc2ccc(C)cc2)sc1N [TJ55, Methyl 2-amino-5-((4-methylphenylthio)methyl)thiophene-3-carboxylate]	1.5	48	72	IC50 (CEM cells; [9]): 1.5 ± 0.3 µM; IC50 [1, 10]: 72 ± 30 µM
COC(=O)c1cc(CSCc2ccc(OC)cc2)sc1N1C(=O)c2ccccc2C1=O [TJ127, Methyl 2-phthalimido-5-(2-(4-methoxybenzyl)sulfanylmethyl)thiophene-3-carboxylate]				IC50 (CEM cells; [2]): 25 ± 8 µM; IC50 [1, 3]: 111 ± 20 µM
CCc1ccc(SCc2cc(C(=O)OC)c(N)s2)cc1 [TJ185, Methyl 2-amino-5-((4-ethylphenylthio)methyl)thiophene-3-carboxylate]	0.34	144	49	
COC(=O)c1cc(CSc2ccccc2N)sc1N [TJ122, Methyl 2-amino-5-((2-aminophenylthio)methyl)thiophene-3-carboxylate]	39	1	46	
COC(=O)c1cc(CCCSc2ccc(OC)cc2)sc1N [TJ169, Methyl 2-amino-5-(3-(4-methoxyphenylthio)propyl)thiophene-3-carboxylate]	0.97	61	59	
COC(=O)c1cc(CCCSC2CCCCC2)sc1N [TJ170, Methyl 2-amino-5-(3-(cyclohexylthio)propyl)thiophene-3-carboxylate]	0.57	96	55	
COC(=O)c1cc(CSc2ccncc2)sc1N [TJ129, Methyl 2-amino-5-((pyridin-4-ylthio)methyl)thiophene-3-carboxylate]	111	1	93	
COC(=O)c1cc(CSc2cccc(C(=O)O)c2)sc1N [TJ53, 3-((5-amino-4-(methoxycarbonyl)thiophen-2-yl)methylthio)benzoic acid]	124	≦1	75	
2-Amino-5-(2-(4-methoxyphenyl)ethyl)thiophene-3-carboxylate [TJ8]				IC50 (CEM cells; Table 1a, read-out: IC50 μM (CEM)): 31 µM

Compound	IC50 (CEM cells; [4]) [µM]	Ratio (tumor cell selectivity) (CEM cells; Table 7)	IC50 [1, 5] [µM]	also measured
COC(=O)c1cc(CSC2CCCC2)sc1N [TJ179, Methyl 2-amino-5-(cyclopentylthiomethyl)thiophene-3-carboxylate]	1.8	44	80	
COC(=O)c1cc(CSCc2cccs2)sc1N [TJ118, Methyl 2-amino-5-((thiophen-2-ylmethylthio)methyl)thiophene-3-carboxylate]	3.3	30	99	IC50 (CEM cells; [9]): 3.3 ± 0.9 µM; IC50 [1, 10]: 99 ± 5 µM
COC(=O)c1cc(CSc2ccc(OC)cc2)sc1N [TJ22, Methyl 2-amino-5-(2-(4-methoxyphenyl)sulfanylmethyl)thiophene-3-carboxylate]		93		IC50 (CEM cells; [11]): 0.62 µM; IC50 (CEM cells; [2]): 0.62 ± 0.33 µM; IC50 [1, 12]: 58 µM; IC50 [1, 3]: 58 ± 1 µM
COC(=O)c1cc(CSc2ccc([N+](=O)[O-])cc2)sc1N [TJ126, Methyl 2-amino-5-((4-nitrophenylthio)methyl)thiophene-3-carboxylate]	12	1	16	
COC(=O)c1cc(CSCCc2ccccc2)sc1N [TJ187, Methyl 2-amino-5-(phenethylthiomethyl)thiophene-3-carboxylate]	1.2	62	74	
COC(=O)c1cc(CNc2ccc(OC)cc2)sc1N [TJ51, Methyl 2-amino-5-(2-(4-methoxyphenyl)aminomethyl)thiophene-3-carboxylate]				IC50 (CEM cells; [2]): 96 ± 16 µM; IC50 [1, 3]: 78 ± 15 µM
COC(=O)c1cc(CSCc2ccco2)sc1N [TJ117, Methyl 2-amino-5-((furan-2-ylmethylthio)methyl)thiophene-3-carboxylate]	4.9	21	102	IC50 (CEM cells; [9]): 4.9 ± 0.1 µM; IC50 [1, 10]: 102 ± 6 µM
COC(=O)c1csc(CCc2ccc(OC)cc2)c1 [TJ7, Methyl 5-(2-(4-methoxyphenyl)ethyl)thiophene-3-carboxylate]				IC50 (CEM cells; [6]): 87 µM
COC(=O)c1cc(CSc2ccc(F)cc2)sc1N [Compound D10, Methyl 2-amino-5-((4-fluorophenylthio)methyl)thiophene-3-carboxylate]	3.1	33	102	
COC(=O)c1cc(CSCc2ccccc2)sc1N [TJ57, Methyl 2-amino-5-(2-(phenyl)methylsulfanylmethyl)thiophene-3-carboxylate]		17		IC50 (CEM cells; [11]): 3.5 µM; IC50 (CEM cells; [2]): 3.5 ± 1.1 µM; IC50 [1, 12]: 61 µM; IC50 [1, 3]: 61 ± 38 µM
COC(=O)c1ccccc1SCc1cc(C(=O)OC)c(N)s1 [Compound D7, Methyl 2-amino-5-((2-(methoxycarbonyl)phenylthio)methyl)thiophene-3-carboxylate]	27	7	190	
CCc1cc(C(=O)OC)c(N)s1 [TJ157, Methyl 2-amino-5-ethylthiophene-3-carboxylate]				IC50 (CEM cells; [7]): 175 µM; Ratio (tumor cell selectivity) (CEM cells; Table 6): 1; IC50 [1, 8]: 180 µM
COC(=O)c1cc(CSc2ccccc2)sc1N [TJ4, Methyl 2-amino-5-(2-(phenyl)sulfanylmethyl)thiophene-3-carboxylate]		83		IC50 (CEM cells; [11]): 1.3 µM; IC50 (CEM cells; [2]): 1.3 ± 0.6 µM; IC50 [1, 12]: 108 µM; IC50 [1, 3]: 108 ± 7 µM
COC(=O)c1cc(CCc2ccc(OC)cc2)sc1N(C)C [TJ6B, Methyl 2-dimethylamino-5-(2-(4-methoxyphenyl)ethyl)thiophene-3-carboxylate]				IC50 (CEM cells; [6]): 18 µM
COC(=O)c1cc(CSc2ccc(OC)cc2)sc1N1C(=O)c2ccccc2C1=O [TJ21, Methyl 2-phthalimido-5-(2-(4-methoxyphenyl)sulfanylmethyl)thiophene-3-carboxylate]				IC50 (CEM cells; [2]): 4.9 ± 1.4 µM; IC50 [1, 3]: 112 ± 2 µM
COC(=O)c1cc(Cc2ccccc2)sc1N [TJ109, Methyl 2-amino-5-benzylthiophene-3-carboxylate]				IC50 (CEM cells; [6]): 8.4 µM
COC(=O)c1cc(CCCCl)sc1N [TJ168D, Methyl 2-amino-5-(3-chloropropyl)thiophene-3-carboxylate]				IC50 (CEM cells; [7]): 26 µM; Ratio (tumor cell selectivity) (CEM cells; Table 6): 6; IC50 [1, 8]: 150 µM
CNC(=O)c1cc(CCc2ccc(OC)cc2)sc1N [TJ19, N-Methyl 2-amino-5-(2-(4-methoxyphenyl)ethyl)thiophene-3-carboxamide]				IC50 (CEM cells; [6]): 31 µM
